Measured values as given in PubChem BioAssay (NCI).
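These data come from cells grown in 96-well plates and exposed to compound for 48 hours at five concentrations. TGI marks complete inhibition of growth.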

Key:
Assay in all cases: inhibition of tumour cell growth, NCI panel, 48 h
[1] = test system: SF-268 CNS
[2] = test system: IGROV1 ovarian
[3] = test system: EKVX NSCLC
[4] = test system: SNB-19 CNS
[5] = test system: UO-31 renal
[6] = test system: M14 melanoma
[7] = test system: MALME-3M melanoma
[8] = test system: SK-OV-3 ovarian
[9] = test system: HS 578T breast
[10] = test system: NCI/ADR-RES ovarian
[11] = test system: MDA-N

Row | Structure (SMILES) | TGI [1] [µM] | TGI [2] [µM] | TGI [3] [µM] | TGI [4] [µM] | TGI [5] [µM] | TGI [6] [µM] | TGI [7] [µM] | TGI [8] [µM] | TGI [9] [µM] | TGI [10] [µM] | TGI [11] [µM]
1 | Cc1ccc(S(=O)(=O)c2ccc(C)cc2[N+](=O)[O-])c([N+](=O)[O-])c1 | > 100 | > 100 | > 100 | > 100 | > 100 | > 100 | > 100 | – | – | – | –
2 | Cc1c(-c2coc(-c3ccc([N+](=O)[O-])cc3)n2)c(=O)n(-c2ccccc2)n1C | > 100 | > 100 | > 100 | – | > 100 | > 100 | > 100 | > 100 | – | – | –
3 | O=C(c1ccccc1)c1ccc(N2C(=O)/C(=C/c3ccccc3S)N=C2c2ccccc2)c(N2C(=O)/C(=C/c3ccccc3S)N=C2c2ccccc2)c1 | > 100 | > 100 | > 100 | > 100 | > 100 | > 100 | – | > 100 | > 100 | > 100 | > 100
4 | CCOC(=O)/C=C(/C(=O)OCC)n1ccc(=O)n(Cc2cn(CCCCOC(C)=O)nn2)c1=O | > 100 | > 100 | > 100 | > 100 | > 100 | – | – | > 100 | > 100 | > 100 | > 100
5 | CCC1=CC(OCc2ccccc2)C(CCN(Cc2ccccc2)C(=O)OCc2ccccc2)C1 (stereo unspecified) | 32.5 | 29.8 | 32.8 | 30.9 | 28.3 | 27.8 | 30.1 | 80.6 | 32.6 | 35.3 | 54.1
6 | Cc1cn(C2CC(O)C(Cn3nncc3Cn3cnc4c(N)ncnc43)O2)c(=O)[nH]c1=O (stereo unspecified) | > 100 | > 100 | > 100 | > 100 | > 100 | > 100 | > 100 | > 100 | > 100 | > 100 | > 100
7 | O=C(O)C12C3CCC(C3)C1(C(=O)O)C1CCC2C1 (stereo unspecified) | > 100 | > 100 | > 100 | > 100 | > 100 | > 100 | > 100 | > 100 | – | – | –
8 | CN1CCS(=O)(=O)NC(Cc2ccccc2)C(=O)N2CCCC2C1=O (stereo unspecified) | > 100 | > 100 | > 100 | > 100 | > 100 | – | > 100 | > 100 | – | – | –
9 | C1CSCCSCCSCCSCCS1 | > 100 | > 100 | > 100 | > 100 | > 100 | > 100 | – | > 100 | > 100 | > 100 | > 100
10 | Nc1ccc(-c2nc3ccccc3s2)cc1CO | > 100 | > 100 | > 49.2 | > 100 | > 100 | > 100 | > 100 | > 100 | > 100 | > 100 | > 100
11 | COc1ccc2nc3c4c(nccc4c2c1)-c1ncccc1C3=O | 3.96 | 0.279 | 0.903 | 0.279 | 0.706 | 0.29 | 0.291 | 0.386 | – | 7.62 | 0.128
